According to US8658604B2, “Template-fixed beta-hairpin peptidomimetics with protease inhibitory activity” (Polyphor Ltd, priority 2005, dated 2014):
Read-outs that look alike come from different tables or passages of the source. Where a SMILES comes first, the peptide text is derived from it.

Columns and labels:
[1] = molecular target: T1, Elastase from human neutrophils (Homo sapiens, UniProt P08246); assay: Enzymatic assay, elastase
T1 sequence (P08246 30-267): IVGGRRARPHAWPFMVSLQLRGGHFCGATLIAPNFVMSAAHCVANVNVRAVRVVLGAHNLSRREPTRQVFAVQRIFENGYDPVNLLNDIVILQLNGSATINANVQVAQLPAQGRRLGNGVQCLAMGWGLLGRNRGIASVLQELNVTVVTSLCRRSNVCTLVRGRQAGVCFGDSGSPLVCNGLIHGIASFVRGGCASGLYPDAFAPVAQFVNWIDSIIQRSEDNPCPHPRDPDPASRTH

Chymase, from human skin = molecular target: T2, Chymase, from human skin (Homo sapiens, UniProt P23946); assay: Enzymatic assay, chymase
T2 sequence (P23946 22-247): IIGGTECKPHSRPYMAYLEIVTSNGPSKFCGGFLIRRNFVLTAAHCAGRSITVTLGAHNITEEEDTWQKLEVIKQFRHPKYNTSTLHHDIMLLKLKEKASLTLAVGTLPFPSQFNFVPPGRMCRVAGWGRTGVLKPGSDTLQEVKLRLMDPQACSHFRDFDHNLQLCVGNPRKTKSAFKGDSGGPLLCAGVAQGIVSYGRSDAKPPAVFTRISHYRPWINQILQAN

[2] = molecular target: Thrombin, from Human Plasma (Homo sapiens, UniProt P00734); assay: Enzymatic assay, thrombin
HELA cells (Acc57) = assay: Cytotoxicity assay (MTT reduction), HELA cells; type: cell-based
Outline: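 HeLa cells were grown for 24 h, then exposed to peptides at 12.5, 25 and 50 μM in triplicate for 48 h at 37 °C. MTT reduction was read at 595 nm and growth % calculated relative to time-zero wells. LC50 interpolated by linear trend at −50% growth, GI50 at 50%.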

[3] = molecular target: T3, CathepsinG, from human neutrophils (Homo sapiens, UniProt P08311); assay: Enzymatic assay, cathepsin G
T3 sequence (P08311 21-244): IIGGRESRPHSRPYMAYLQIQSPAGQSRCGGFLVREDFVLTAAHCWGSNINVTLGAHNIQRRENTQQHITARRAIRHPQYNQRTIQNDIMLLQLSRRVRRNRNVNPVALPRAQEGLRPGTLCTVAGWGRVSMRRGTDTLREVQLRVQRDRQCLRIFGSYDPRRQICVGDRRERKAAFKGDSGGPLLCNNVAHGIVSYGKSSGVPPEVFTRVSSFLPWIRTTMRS

[4] = tested on: Tryptase, from human lung; assay: Enzymatic assay, tryptase; details: at 100 μM
[5] = molecular target: Trypsin, from human pancreas (Homo sapiens, UniProt P07477); assay: Enzymatic assay, trypsin; details: at 100 μM
[6] = tested on: human red blood cells (hRBC); assay: Hemolysis
Procedure: The peptides were tested for their hemolytic activity against human red blood cells (hRBC). Fresh hRBC were washed three times with phosphate buffered saline (PBS) by centrifugation for 10 min at 2000×g. Peptides at a concentration of 100 μM were incubated with 20% v/v hRBC for 1 hour at 37° C. The final erythrocyte concentration was approximately 0.9×10^9 cells per ml. A value of 0% and, respectively, 100% cell lysis was determined by incubation of the hRBC in the presence of PBS alone and, respectively, 0.1% Triton X-100 in H2O. […] The 100% lysis value (OD540H20) gave an OD540 of approximately 1.3-1.8. Percent hemolysis was calculated as follows: (OD540peptide/OD540H20)×100%.

[7] = molecular target: Urokinase from human urine (Homo sapiens, UniProt P00749); assay: Enzymatic assay, urokinase
[8] = molecular target: Chymotrypsin, from human pancreas (Homo sapiens, UniProt P17538); assay: Enzymatic assay, chymotrypsin; details: at 100 μM
Chymotrypsin, from human pancreas, sequence (P17538 19-263): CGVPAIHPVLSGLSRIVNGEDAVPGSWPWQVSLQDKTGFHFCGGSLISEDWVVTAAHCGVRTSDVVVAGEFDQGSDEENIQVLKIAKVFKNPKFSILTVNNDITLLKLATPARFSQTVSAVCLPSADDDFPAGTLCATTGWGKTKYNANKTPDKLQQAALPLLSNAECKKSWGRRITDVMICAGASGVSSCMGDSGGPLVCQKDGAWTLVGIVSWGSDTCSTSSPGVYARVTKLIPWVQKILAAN

[9] = molecular target: Coagulation Factor Xa, from uman plasma (Homo sapiens, UniProt P00742); assay: Enzymatic assay, coagulation factor Xa
Coagulation Factor Xa, from uman plasma, sequence (P00742 235-488 limits assumed): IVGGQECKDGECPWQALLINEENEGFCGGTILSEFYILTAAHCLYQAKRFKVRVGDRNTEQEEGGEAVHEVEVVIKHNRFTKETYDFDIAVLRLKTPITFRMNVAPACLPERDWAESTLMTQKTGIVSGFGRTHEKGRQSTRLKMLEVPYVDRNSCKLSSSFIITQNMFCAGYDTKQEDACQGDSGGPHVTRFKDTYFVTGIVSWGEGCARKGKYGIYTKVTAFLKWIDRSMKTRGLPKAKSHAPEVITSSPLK
Coagulation Factor Xa, from uman plasma, sequence (P00742 41-179 limits assumed): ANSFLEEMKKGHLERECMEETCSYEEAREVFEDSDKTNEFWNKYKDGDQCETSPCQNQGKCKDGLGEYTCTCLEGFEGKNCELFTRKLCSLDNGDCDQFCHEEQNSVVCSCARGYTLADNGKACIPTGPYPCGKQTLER

SMILES	Elastase at 100 μM % ([1]; at 100 μM (stated in cell instead of IC50))	Chymase at 100 μM % (Chymase, from human skin)	Thrombin at 100 μM % [2]	Cytotoxicity LC50/GI50 Hela cells (HELA cells (Acc57))	IC50 ([3]; Cathepsin G IC50)	Tryptase at 100 μM % [4]	Trypsin at 100 μM % [5]	Hemolysis at 100 μM % [6]	Urokinase at 100 μM % [7]	Chymotrypsin at 100 μM % [8]	FXa at 100 μM % [9]	IC50 ([1]; Elastase IC50)	Cytotoxicity LC50/GI50 Hela cells (HELA cells (Acc57); Hela cells)	IC50 ([1]; read-out: Elastase IC50)	IC50 ([3]; read-out: Cathepsin G IC50)
CC[C@H](C)[C@@H]1NC(=O)[C@@H]2CCCN2C(=O)[C@@H]2CCCN2C(=O)[C@H](CC(=O)O)NC(=O)[C@H](CO)NC(=O)[C@H](CCCCN)NC(=O)[C@H]([C@@H](C)O)NC(=O)[C@H](CCC(=O)O)NC(=O)[C@H](CCCNC(=N)N)NC(=O)[C@@H]2CCCN2C(=O)[C@H]2CCCN2C(=O)[C@H](Cc2ccccc2)NC(=O)[C@H](CCCNC(=N)N)NC1=O [Ex. 7] (HELM PEPTIDE1{R.E.T.K.S.D.P.P.I.R.F.[dP].P}$PEPTIDE1,PEPTIDE1,1:R1-13:R2$$$V2.0)	1.5 at %	13.4%	0%	100 µM	0.091 µM	1.5%	41%	0.2%	1.1%	12%	11.7%	–	–	–	–
CC[C@H](C)[C@@H]1NC(=O)[C@@H]2CCCN2C(=O)[C@@H]2CCCN2C(=O)[C@H](CC(=O)O)NC(=O)[C@H](CO)NC(=O)[C@H](CCCCN)NC(=O)[C@H]([C@@H](C)O)NC(=O)[C@@H]2CSSC[C@H](NC1=O)C(=O)N[C@@H](CO)C(=O)N1CCC[C@@H]1C(=O)N[C@@H](CCC(=O)O)C(=O)N[C@@H](Cc1ccccc1)C(=O)N2 [Ex. 64] (HELM PEPTIDE1{F.C.T.K.S.D.P.P.I.C.S.[dP].E}$PEPTIDE1,PEPTIDE1,2:R3-10:R3|PEPTIDE1,PEPTIDE1,1:R1-13:R2$$$V2.0)	–	0%	2.3%	–	0.045 µM	0%	87%	0%	3%	0%	0%	> 100 µM	59 µM	–	–
CCCC[C@@H]1NC(=O)[C@@H]2CCCN2C(=O)[C@H]2CCCN2C(=O)[C@H](Cc2ccc(O)cc2)NC(=O)[C@@H]2CSSC[C@H](NC1=O)C(=O)N[C@@H]([C@@H](C)O)C(=O)N[C@@H](CCCCN)C(=O)N[C@@H](CO)C(=O)N[C@@H](CC(=O)O)C(=O)N1CCC[C@H]1C(=O)N1CCC[C@H]1C(=O)N[C@@H]([C@@H](C)CC)C(=O)N2 [Ex. 44] (HELM PEPTIDE1{[Nle].C.T.K.S.D.P.P.I.C.Y.[dP].P}$PEPTIDE1,PEPTIDE1,2:R3-10:R3|PEPTIDE1,PEPTIDE1,1:R1-13:R2$$$V2.0)	–	3%	9%	–	0.031 µM	50%	100%	0.1%	14%	24%	9%	> 10 µM	67 µM	–	–
CC[C@H](C)[C@@H]1NC(=O)[C@H](C)NC(=O)[C@@H]2CCCN2C(=O)[C@H](CC(=O)O)NC(=O)[C@H](CO)NC(=O)[C@H](CCCCN)NC(=O)[C@H]([C@@H](C)O)NC(=O)[C@@H]2CSSC[C@H](NC1=O)C(=O)N[C@@H](CCCNC(=N)N)C(=O)N1CCC[C@@H]1C(=O)N1CCC[C@H]1C(=O)N[C@@H]([C@@H](C)CC)C(=O)N2 [Ex. 14] (HELM PEPTIDE1{I.C.T.K.S.D.P.A.I.C.R.[dP].P}$PEPTIDE1,PEPTIDE1,2:R3-10:R3|PEPTIDE1,PEPTIDE1,1:R1-13:R2$$$V2.0)	–	42.3%	8.7%	–	0.052 µM	84.2%	88%	0%	5.4%	0%	6%	> 100 µM	100 µM	–	–
CCCC[C@@H]1NC(=O)[C@@H]2CCCN2C(=O)[C@@H]2CCCN2C(=O)[C@H](CC(=O)O)NC(=O)[C@H](CO)NC(=O)[C@H](CCCCN)NC(=O)[C@H]([C@@H](C)O)NC(=O)[C@@H]2CSSC[C@H](NC1=O)C(=O)N[C@@H](Cc1ccc(O)cc1)C(=O)N1CCC[C@@H]1C(=O)N1CCC[C@H]1C(=O)N[C@@H](C1CCCCC1)C(=O)N2 [Ex. 63] (HELM PEPTIDE1{[O=C([C@@H](N[*:1])C1CCCCC1)[*:2]].C.T.K.S.D.P.P.[Nle].C.Y.[dP].P}$PEPTIDE1,PEPTIDE1,2:R3-10:R3|PEPTIDE1,PEPTIDE1,1:R1-13:R2$$$V2.0)	–	7%	1%	–	0.041 µM	50%	96%	0%	0%	11%	0%	> 100 µM	87 µM	–	–
CC[C@H](C)[C@@H]1NC(=O)[C@@H]2CCCN2C(=O)[C@@H]2CCCN2C(=O)[C@H](CC(=O)O)NC(=O)[C@H](CO)NC(=O)[C@H](CCCCN)NC(=O)[C@H]([C@@H](C)O)NC(=O)[C@@H]2CSSC[C@H](NC1=O)C(=O)N[C@@H](CO)C(=O)N1CCC[C@@H]1C(=O)N[C@@H](CC(=O)O)C(=O)N[C@@H](Cc1ccccc1)C(=O)N2 [Ex. 47] (HELM PEPTIDE1{F.C.T.K.S.D.P.P.I.C.S.[dP].D}$PEPTIDE1,PEPTIDE1,2:R3-10:R3|PEPTIDE1,PEPTIDE1,1:R1-13:R2$$$V2.0)	–	8.2%	0%	–	0.064 µM	0%	87%	0%	6.3%	1%	9.3%	> 10 µM	100 µM	–	–
CC[C@H](C)[C@@H]1NC(=O)[C@H](C)NC(=O)[C@@H]2CCCN2C(=O)[C@H](CC(=O)O)NC(=O)[C@H](CO)NC(=O)[C@H](CCCCN)NC(=O)[C@H]([C@@H](C)O)NC(=O)[C@@H]2CSSC[C@H](NC1=O)C(=O)N[C@@H](CCCNC(=N)N)C(=O)N1CCC[C@@H]1C(=O)N1CCC[C@H]1C(=O)N[C@@H]([C@@H](C)CC)C(=O)N2 [Ex. 52] (HELM PEPTIDE1{I.C.T.K.S.D.P.A.I.C.R.[dP].P}$PEPTIDE1,PEPTIDE1,2:R3-10:R3|PEPTIDE1,PEPTIDE1,1:R1-13:R2$$$V2.0)	–	42.3%	8.7%	–	–	84.2%	86%	0%	5.4%	0%	6%	–	100 µM	> 100 µM	0.052 µM
